The values that follow are results of earlier work, collected in US20220273779A1, “TAU PEPTIDE ANTIGENS AND ANTIBODIES BINDING THERETO FOR THE TREATMENT OF TAUOPATHIES” (The Board of Regents of the University of Texas System, priority 2018, published 2022).

Where two headings read alike, the source gives them in different places.

For data set [1] the following is noted: RRMS, first-line treatments.

For glatiramer acetate, the “Irritation at the injection site” value (intramuscular injections) is listed as not above 33% and the “Irritation at the injection site” value (subcutaneous injections) was “up to 90%”. Moreover, the Reduction of relapses result in data set [1] is “approximately 30%”.
